Format in all cases: cell-based, human
For series [1], the system named is MDA-MB-231/Vector and MDA-MB-231/Bcl-2 cells. The series can be described thus: Viability screening assay in MDA-MB-231 cells with high and low Bcl-2 (CellTiter Glo). As to conditions: for Bcl-2 selective reduction in viability, MDA-MB-231/Bcl-2 vs MDA-MB-231/Vector: 10 μM, 24 h, 10% serum. As to the method: In one example, a triple negative breast cancer cell line, MDA-MB-231, was used for screening these libraries. […] At the end of the assay, cell viability was determined using the cell titer Glo assay. […] A hit was defined as a compound inducing more than 20% reduction in viability of MDA-MB-231/Bcl-2 cells, compared to vector controls (MDA-MB-231/Vector). In the next step these shortlisted small molecules were tested for their ability to convert the conformation of Bcl-2 into a pro-apoptotic one.
To screen for Bcl-2 selective compounds, MDA-MB-231 cells (MDA-MB-231/Vector and MDA-MB-231/Bcl-2) were plated at 4000 cells per well in a 96 well black opaque plate. The day after plating the cells, treatment from the library plates was done so as to add 1 μL of the compound into the cells, resulting in 10 μM concentration. For non-specific […], 25 nM of staurosporin was used. […] Post treatment viability was assessed by CellTiter Glo Cell Viability assay (Promega Inc., Madison, Wis.) as per manufacturer instructions.
Viability for test compounds in each cell line (MDA-MB-231/Vector and MDA-MB-231/Bcl-2) was normalized to their respective vehicle treatments. Compounds that had at least 20% less viability in the MDA-MB-231/Bcl-2 cell line than the MDA-MB-231/Vector cell line were selected as initial hits and shortlisted for revalidation. Revalidated compounds were reordered for further testing and characterization. All data analyses were performed using Microsoft Excel.
Background: Cellular ATP, detected with luciferase, serves as a proxy for viable cell number.

For series [2], the system named is MDA-MB-468 parental and derived paclitaxel or doxorubicin resistant cells. The series can be described thus: Viability of MDA-MB-468 parental and derived resistant cells. The settings on record: 72 hours. The method, then: Percentage viability relative to vehicle treatment. Representative of three independent assays in triplicate.
Percentage viability relative to vehicle treatment.
Percentage viability relative to vehicle treatment. Representative of three independent assays conducted in triplicate.
(§1) Cells of interest were plated at 2000 cells per well in 96-well black tissue culture plate and allowed to adhere to the plate overnight. Viability assays were performed using 10% serum medium unless otherwise stated. Drugs were diluted in supplemented tissue culture medium and added at increasing concentrations, with DMSO as a vehicle control. Cells were then incubated for either 48 hour or 72 hours in presence of the compound, Promega Titer Glo was added to the wells at the assay end point according to manufacturer's protocol. Luminescence was measured using Tropix TR717 Microplate luminometer. Percentage of viable cells is relative to vehicle (100%). As a complementary viability assay, eBioscience Fixable Viability Dye eFluor 660(65-0864) was used to stain dead cells and analyzed using flow cytometry.

In series [3] the test system is Bcl-2 low and high expressing Jurkat lymphoma cells (Jurkat/Vector, Jurkat/Bcl-2). In words: Cell viability in Bcl-2 low and high expressing Jurkat cells. The settings on record: for Effect of Bcl-2 expression on Jurkat cells exposed to cancer therapeutics: Jurkat cells with high and low expression of Bcl-2 (FIG. 9G); for Bcl-2 dependent effects in Jurkat Lymphoma cells: Bcl-2 low and high expressing Jurkat lymphoma cells treated for 72 hours with various concentrations; for minimal effective concentration: Homo sapiens, Jurkat lymphoma cells, 72 hours, n/d means no reduction was detected at concentrations tested, read-out: Lowest effective dose (minimal effective concentration that induced Bcl-2-dependent reduction in cell viability).

In series [4] the test system is H460 parental and derived paclitaxel resistant cells. In words: Viability of H460 parental and paclitaxel resistant cells. The method, then: Percentage viability relative to vehicle treatment was calculated. Representative of three independent assays conducted in triplicate.
FIG. […] Percentage viability relative to vehicle treatment. Representative of three independent assays conducted in triplicate.
Representative of three independent assays conducted in triplicate.
Cell lines were obtained from ATCC and maintained according to manufacturer's instructions. The human lung cancer cell line NCI-H460, H69AR (ATCC) were cultured in RPMI medium (Corning) containing 10% FBS. The human breast cancer cell line MDA-MB-231 was cultured in DMEM medium (Corning) containing 10% FBS. All cell lines were maintained at 5% CO2 and 37° C. Paclitaxel resistant H460 cells were derived by treating cells once a week over 6 weeks, initially with 1 nM paclitaxel and then increasing dose incrementally up to 100 nM. Once resistance was confirmed, paclitaxel was withdrawn from the cells. Resistance to paclitaxel was maintained without presence of paclitaxel measured up to 2 months. A parental line was maintained for a similar number of passages as the resistant line. All experiments were performed using cells that had not been treated with paclitaxel in at least three passages.
as §1, with “Cells were then incubated for either 48 hour or 72 hours in presence of the compound, Promega Titer Glo was added to the wells at the assay end point according to manufacturer's protocol.” left out

Series [5] relates to H460 parental and resistant cells. In words: Colony formation (2D clonogenic, 3D soft agar) of H460 parental and resistant cells. As to conditions: 10 nM paclitaxel, continuously for 14 days. From the text:
Colony forming ability (%) relative to vehicle treatment. Representative of three independent conducted assays in triplicate.

For series [6] the test system is unchanged. In words: Annexin-V apoptosis assay in H460 parental and resistant cells. The settings on record: 10 nM paclitaxel, 48 hours. The method, then:
FIG. 25E is the results of Annexin-V apoptosis assay in H460 cells treated for 48 hours with vehicle or paclitaxel 10 nM, quantification right panel.
Cells were seeded into 6 well tissue culture plates to give approximately 50% confluence and allowed to attach overnight. The cells were then treated for a period of time indicated in figure legend with the appropriate compound at various concentrations (see figure legends). An Annexin V-conjugate PerCP-eFluor 710 apoptosis detection kit was used as described by the manufacturer's protocol (eBioscience 88-8008). Harvesting of cells included collection of floating and attached cells following trypsinization. Data were acquired using an CytoFLEX S flow cytometer (Beckman Coulter, Brea, Calif.) and 10,000 events on the PC5.5 channel were analyzed using CytExpert software (Beckman Coulter). For Nur77 GFP tagged annexin V analysis, GFP positive population were selected and then Annexin V+population was determined. For each sample, 10,000 GFP+ events were collected. Annexin V positive cell population was considered to be the apoptotic population, and the percent of annexin V positive cell population was used to determine the extent of apoptosis.

“Also recorded” adds a separate entry of the source.

The record followed here is patent publication US11419843B2, “Small molecule BCL-2 functional converters as cancer therapeutics” (Oregon State University, priority 2016, dated 2022).

On to “2-Iodo acetamide [Iodoacetamide, reference compound]”, for which the “Bcl-2 selective reduction in viability, MDA-MB-231/Bcl-2 vs MDA-MB-231/Vector” value in series [1] is on record as “selectively induce more cell death in high-Bcl-2 expressing MDA-MB-231 cells”.

In the case of `O=c1[nH]cc(F)c(=O)[nH]1` [5-fluoro uracil, reference compound], the “Cross-resistance of MDA-MB-468 paclitaxel-resistant line” value in series [2] is “cross-resistant”. The “Effect of Bcl-2 expression on Jurkat cells exposed to cancer therapeutics” value (“Effect of Bcl-2 expression” below) in series [3] was “Bcl-2 expression protected Jurkat cells”.

Take `COc1ccc([N+](=O)[O-])cc1CSc1nc2sc3c(c2c(=O)n1-c1ccccc1)CCCC3` [BFC1111, 2-[(2-methoxy-5-nitrobenzyl)thio]-3-phenyl-5,6,7,8-tetrahydro[1] benzothieno[2,3-d]pyrimidin-4(3H)-one]: the “Viability of H460 resistant vs parental line” value in series [4] (72 hours) was “reduced viability of resistant line preferentially”. Also, in series [1] (listed as BFC1110-A), the “Bcl-2 selective reduction in viability, MDA-MB-231/Bcl-2 vs MDA-MB-231/Vector” value is “good Bcl-2 dependent effects in MDA-MB-231 cells; also recorded: comparable Bcl-2 selective induction of cell death as the parent BFC1110”.

With `Nc1nc(N)c2nc(CNc3ccc(C(=O)N[C@@H](CCC(=O)O)C(=O)O)cc3)cnc2n1` [Compound 1], in series [3], the “Bcl-2 dependent effects in Jurkat Lymphoma cells” value (“Bcl-2 dependent effects” below) is recorded as “Yes” and the minimal effective concentration amounted to 0.01 µM.

On to `CN(Cc1cnc2nc(N)nc(N)c2n1)c1c(Cl)cc(C(=O)N[C@@H](CCC(=O)O)C(=O)O)cc1Cl` [Compound 2], for which, in series [3], the “Bcl-2 dependent effects” value is on record as “Yes” and the minimal effective concentration was determined as 0.001 µM.

Regarding `Nc1nc(N)c2nc(CNc3ccc(C(=O)N[C@@H](CC(=O)O)C(=O)O)cc3)cnc2n1` [Compound 3], in series [3], the “Bcl-2 dependent effects” value is given as “Yes” and the minimal effective concentration was 10 µM.

As to `CC(Nc1ccc(C(=O)N[C@@H](CCC(=O)O)C(=O)O)cc1)c1cnc2nc(N)nc(O)c2n1` (some centres unmarked) [Compound 4], in series [3], the “Bcl-2 dependent effects” value is “No”.

In the case of `CN(Cc1cnc2nc(N)nc(N)c2n1)c1ccc(C(=O)N[C@@H](CCC(=O)O)C(=O)O)cc1F` [Compound 5], in series [3], the “Bcl-2 dependent effects” value is “Yes” and the minimal effective concentration turned out to be 0.01 µM.

As to `CN(Cc1cnc2nc(N)nc(N)c2n1)c1c(F)cc(C(=O)N[C@@H](CCC(=O)O)C(=O)O)cc1F` [Compound 6], in series [3], the “Bcl-2 dependent effects” value is recorded as “Yes” and the minimal effective concentration was 0.01 µM.

Take `Cc1cc(C(=O)O)cc(C)c1N(C)Cc1cnc2nc(N)nc(N)c2n1` [Compound 7]: the “Bcl-2 dependent effects” value in series [3] is “No”.

With `C=CCN(Cc1cnc2nc(N)nc(N)c2n1)c1ccc(C(=O)N[C@@H](CCC(=O)O)C(=O)O)cc1` [Compound 8], in series [3], the “Bcl-2 dependent effects” value is given as “Yes” and the minimal effective concentration turned out to be 0.01 µM.

Regarding `CN(Cc1cnc2nc(N)nc(N)c2n1)c1cc(Cl)c(C(=O)N[C@@H](CCC(=O)O)C(=O)O)c(Cl)c1` [Compound 9], in series [3], the “Bcl-2 dependent effects” value is given as “Yes” and the minimal effective concentration is 1 µM.

With `Nc1nc(N)c2nc(CC3CCCc4cc(C(=O)N[C@@H](CCC(=O)O)C(=O)O)ccc43)cnc2n1` (some centres unmarked) [Compound 10], in series [3], the “Bcl-2 dependent effects” value is reported as “Yes” and the minimal effective concentration worked out at 0.1 µM.

Turning to `CN(Cc1cnc2nc(N)nc(N)c2n1)c1ccc(C(=O)N[C@@H](CCC(=O)O)C(=O)O)c2ccccc12` [Compound 11], in series [3], the “Bcl-2 dependent effects” value is “Yes” and the minimal effective concentration amounted to 0.001 µM.

For `Nc1nc(N)c2nc3c(nc2n1)C(=O)N(c1ccc(C(=O)O)cc1)C3` [Compound 12], the “Bcl-2 dependent effects” value in series [3] is “No”.

For the compound `O=P1(N(CCCl)CCCl)NCCCO1` (centres unmarked) [cyclophosphamide, reference compound], the “Effect of Bcl-2 expression” value in series [3] is “Bcl-2 expression protected Jurkat cells”.

For the compound `COc1cccc2c1C(=O)c1c(O)c3c(c(O)c1C2=O)C[C@@](O)(C(=O)CO)C[C@@H]3O[C@H]1C[C@H](N)[C@H](O)[C@H](C)O1` [doxorubicin, reference compound], the “Cross-resistance of MDA-MB-468 paclitaxel-resistant line” value in series [2] is reported as “cross-resistant”. Also, the “Effect of Bcl-2 expression” value in series [3] is listed as “Bcl-2 expression protected Jurkat cells”. The “Susceptibility of H460 paclitaxel resistant line (cross resistance)” value in series [4] (viability assays and colony formation assays) is reported as “paclitaxel resistant line was also less susceptible to doxorubicin treatment”.

In the case of `Nc1ccn([C@@H]2O[C@H](CO)[C@@H](O)C2(F)F)c(=O)n1` [gemcitabine, reference compound], in series [3], the “Effect of Bcl-2 expression” value is listed as “Bcl-2 expression protected Jurkat cells”.

For the compound `CS(=O)(=O)CCNCc1ccc(-c2ccc3ncnc(Nc4ccc(OCc5cccc(F)c5)c(Cl)c4)c3c2)o1` [lapatinib, reference compound], the “Effect of Bcl-2 expression” value in series [3] was “Bcl-2 expression protected Jurkat cells”.

As for `CC(=O)O[C@H]1C(=O)[C@@]2(C)[C@H]([C@H](OC(=O)c3ccccc3)[C@]3(O)C[C@H](OC(=O)[C@H](O)[C@@H](NC(=O)c4ccccc4)c4ccccc4)C(C)=C1C3(C)C)[C@]1(OC(C)=O)CO[C@@H]1C[C@@H]2O` [paclitaxel, reference compound], in series [2] (paclitaxel), the “Viability of MDA-MB-468 parental and paclitaxel resistant lines” value was “derived resistant line viability was unaffected by 50 nM, however parental line was sensitive”. Moreover, the “Colony formation in 2D and 3D soft agar assays, H460 parental and resistant” value in series [5] is “inhibited the parental cells ability to form colonies in 2D and 3D soft agar assays, while resistant lines tumorigenicity was unchanged”. In series [4] (paclitaxel, 72 hours), the “Reduction of viability of H460 parental cells” value came to 90% and the “Viability of H460 paclitaxel resistant line” value was “unaffected”. For the same compound, the “Induction of apoptosis (Annexin V), H460 resistant vs parental” value in series [6] was “minimal induction of apoptosis in the derived H460 resistant line compared to parental sensitive line”. Besides, in series [1] (paclitaxel 10 nM), the “Viability of MDA-MB-231 cells expressing pcDNA vector or Bcl-2” value is reported as “reduced viability of MDA-MB-231 cells transfected with pcDNA vector, while Bcl-2 transfected MDA-MB-231 cells were partially resistant”.
